Experiment [1] relates to ATXN3 transcripts containing exon 4 (E4E5). Briefly: ATXN3 quantitative splicing assay (qPCR, SK-N-MC cells). It counts as cell-based. Conditions: Homo sapiens, 24 h treatment, qPCR E4E5 primers/probe, read-out: ATXN3 Potency - Splicing E4E5 IC50. The protocol:
Human neuroblastoma SK-N-MC cells were plated in 384-well plates at 20,000 cells/well. Twenty-four hours after plating, cells were treated with compounds for 24 h at appropriate concentrations ranging from 30 μM to 0.6 nM (0.3% DMSO). Treated cells were lysed in 15 μL of lysis buffer, and cDNA was synthesized using the Fast Advanced Cells-to-Ct kit. Two μL of each cDNA was used in qPCR reactions to confirm the exon 4 skipped transcripts of ATXN3. A second set of primers/probe E4E5 was used to detect the transcripts containing exon 4. The third set of primers/probe E8E9 was used to detect total gene level of ATXN3. The qPCR reactions were prepared in 384-well plates in 10 μL volume, using TaqMan™ Fast Advanced Master Mix with primers and probes shown in the table below. Reactions were run in a Quant Studio 6 qPCR instrument with default settings.
The primers and probes are listed below in Table 4.

The subject of a further experiment is total ATXN3 protein. In words: ATXN3 total protein assay (MSD, SK-N-MC cells). Format: cell-based, Human. To be noted: 48 hours incubation, read-out: ATXN3 Potency - Protein IC50. The protocol: Human neuroblastoma SK-N-MC cells were seeded at 10,000 cells/well in 384 well plates one day prior to compound treatment. The concentrations of compounds were tested at appropriate doses ranging from 30 μM to 0.6 nM. After incubation for 48 hours, the cells were lysed with 25 μL of lysis buffer containing protease inhibitors, and total ATXN3 protein levels were assessed by Mesoscale Discovery (MSD) assay developed with one pair of anti-ATXN3 antibodies. The capture and detect antibodies were raised in mouse and rabbit respectively. Anti-rabbit MSD-ST antibody was used for secondary antibody.
ATXN3 recombinant protein was used for standards. The readouts were captured with 35 μL of MSD read buffer and multi-array 384-well high binding plates.

Turning to `Cc1c([C@H](O)[C@H](C)N)sc2c(NCc3cccs3)cnnc12` (single isomer, unassigned) [Compound 41], the IC50 (in experiment [1]; with total ATXN3 protein) was 10 to 40 µM each time.

Consider `Cc1c([C@@H](O)[C@H](C)N)sc2c(NCc3cccs3)cnnc12` (single isomer, unassigned) [Compound 42], for which the IC50 (in experiment [1]; in the experiment on total ATXN3 protein) was 5 to 10 µM each time.

Take `Cc1c(C[C@@H](N)CO)sc2c(NCc3ccco3)cnnc12` [Compound 1, (2R)-2-amino-3-(4-{[(furan-2-yl)methyl]amino}-7-methylthieno[3,2-c]pyridazin-6-yl)propan-1-ol]: the IC50 (in experiment [1]; in the experiment with total ATXN3 protein) was 0.501 to 5 µM throughout.

For the molecule `Cc1c(C[C@H](C)N)sc2c(NCc3ccco3)cnnc12` [Compound 2, 6-[(2S)-2-aminopropyl]-N-(furan-2-ylmethyl)-7-methylthieno[3,2-c]pyridazin-4-amine], the half-maximal inhibitory concentration (IC50) (in experiment [1]; in the experiment on total ATXN3 protein) was 0.501 to 5 µM each time.

As for `Cc1c(C[C@@H](N)CO)sc2c(NCc3cccs3)cnnc12` [Compound 3, (2R)-2-amino-3-{7-methyl-4-[(thiophen-2-ylmethyl)amino]thieno[3,2-c]pyridazin-6-yl}propan-1-ol], the concentration for half-maximal inhibition (IC50) (in experiment [1]; in the experiment with total ATXN3 protein) was 0.501 to 5 µM in each case.

For the molecule `Cc1c(C[C@H](C)N)sc2c(NCc3cccs3)cnnc12` [Compound 4, 6-[(2S)-2-aminopropyl]-7-methyl-N-(thiophen-2-ylmethyl)thieno[3,2-c]pyridazin-4-amine], the 50% inhibitory concentration (IC50) in experiment [1] fell in the range of 0.501 to 5 µM; in the experiment with total ATXN3 protein it was 0.101 to 0.5 µM.

On to `Cc1c(C[C@@H](N)CO)sc2c(NCc3nccs3)cnnc12` [Compound 5, (2R)-2-amino-3-(7-methyl-4-{[(1,3-thiazol-2-yl)methyl]amino}thieno[3,2-c]pyridazin-6-yl)propan-1-ol], for which the IC50 (in experiment [1]; in the experiment with total ATXN3 protein) was 10 to 40 µM each time.

In the case of `Cc1c(C[C@H](C)N)sc2c(NCc3nccs3)cnnc12` [Compound 6, 6-[(2S)-2-aminopropyl]-7-methyl-N-[(1,3-thiazol-2-yl)methyl]thieno[3,2-c]pyridazin-4-amine], the half-maximal inhibitory concentration (IC50) (in experiment [1]; in the experiment on total ATXN3 protein) was 0.501 to 5 µM each time.

`Cc1c(C[C@@H](N)CO)sc2c(NCc3ccsc3)cnnc12` [Compound 7, (2R)-2-amino-3-(7-methyl-4-{[(thiophen-3-yl)methyl]amino}thieno[3,2-c]pyridazin-6-yl)propan-1-ol]: the IC50 (in experiment [1]; in the experiment on total ATXN3 protein) was 0.501 to 5 µM in each case.

On to `Cc1c(C[C@H](C)N)sc2c(NCc3ccsc3)cnnc12` [Compound 8, 6-[(2S)-2-aminopropyl]-7-methyl-N-[(thiophen-3-yl)methyl]thieno[3,2-c]pyridazin-4-amine], for which the half-maximal inhibitory concentration (IC50) (in experiment [1]; in the experiment with total ATXN3 protein) was 0.501 to 5 µM throughout.

For the molecule `Cc1c(C[C@@H](N)CO)sc2c(NCc3sccc3F)cnnc12` [Compound 9, (2R)-2-amino-3-(4-{[(3-fluorothiophen-2-yl)methyl]amino}-7-methylthieno[3,2-c]pyridazin-6-yl)propan-1-ol], the IC50 (in experiment [1]; in the experiment with total ATXN3 protein) was 10 to 40 µM each time.

With `Cc1c(C[C@H](C)N)sc2c(NCc3sccc3F)cnnc12` [Compound 10, 6-[(2S)-2-aminopropyl]-N-[(3-fluorothiophen-2-yl)methyl]-7-methylthieno[3,2-c]pyridazin-4-amine], the IC50 (in experiment [1]; in the experiment with total ATXN3 protein) was 0.501 to 5 µM throughout.

In the case of `Cc1csc2c(NCc3ccco3)cnnc12` [Compound 11, N-[(furan-2-yl)methyl]-7-methylthieno[3,2-c]pyridazin-4-amine], the IC50 (in experiment [1]; in the experiment with total ATXN3 protein) was 10 to 40 µM in each case.

Regarding `Cc1csc2c(NCc3nccs3)cnnc12` [Compound 12, 7-methyl-N-[(1,3-thiazol-2-yl)methyl]thieno[3,2-c]pyridazin-4-amine], the half-inhibitory concentration (IC50) (in experiment [1]; with total ATXN3 protein) was 10 to 40 µM throughout.

In the case of `Cc1c(C[C@H](C)N)sc2c(NCn3cccn3)cnnc12` [Compound 15, 6-[(2S)-2-aminopropyl]-7-methyl-N-[(1H-pyrazol-1-yl)methyl]thieno[3,2-c]pyridazin-4-amine], the IC50 (in experiment [1]; with total ATXN3 protein) was 0.501 to 5 µM throughout.

On to `Cc1c(C[C@H](C)N)sc2c(NCc3ccc(F)s3)cnnc12` [Compound 16, 6-[(2S)-2-aminopropyl]-N-[(5-fluorothiophen-2-yl)methyl]-7-methylthieno[3,2-c]pyridazin-4-amine], for which the IC50 (in experiment [1]; in the experiment with total ATXN3 protein) was 0.501 to 5 µM throughout.

With `Cc1c(C[C@H](C)N)sc2c(NCc3ccsc3F)cnnc12` [Compound 17, 6-[(2S)-2-aminopropyl]-N-[(2-fluorothiophen-3-y1)methyl]-7-methylthieno[3,2-c]pyridazin-4-amine], the IC50 in experiment [1] is 5 to 10 µM; in the experiment with total ATXN3 protein, 10 to 40 µM.

On to `Cc1c(C[C@H](C)N)sc2c(NCc3ccns3)cnnc12` [Compound 18, 6-[(2S)-2-aminopropyl]-7-methyl-N-[(1,2-thiazol-5-yl)methyl]thieno[3,2-c]pyridazin-4-amine], for which the half-maximal inhibitory concentration (IC50) (in experiment [1]; in the experiment with total ATXN3 protein) was 10 to 40 µM in each case.

As for `Cc1nnc2c(C)c(C[C@H](C)N)sc2c1NCc1cccs1` [Compound 19, 6-[(2S)-2-aminopropyl]-3,7-dimethyl-N-[(thiophen-2-yl)methyl]thieno[3,2-c]pyridazin-4-amine], the IC50 (in experiment [1]; in the experiment on total ATXN3 protein) was 10 to 40 µM each time.

For `Cc1c(C[C@@H](N)CC(C)C)sc2c(NCc3ccco3)cnnc12` [Compound 20, 6-[(2S)-2-amino-4-methylpentyl]-N-[(furan-2-y1)methyl]-7-methylthieno[3,2-c]pyridazin-4-amine], the half-inhibitory concentration (IC50) (in experiment [1]; in the experiment on total ATXN3 protein) was 5 to 10 µM each time.

Turning to `Cc1c(CCN)sc2c(NCc3ccco3)cnnc12` [Compound 21, 6-(2-aminoethyl)-N-[(furan-2-yl)methyl]-7-methylthieno[3,2-c]pyridazin-4-amine], the IC50 (in experiment [1]; in the experiment on total ATXN3 protein) was 10 to 40 µM throughout.

Take `COc1c(C[C@H](C)N)sc2c(NCc3cccs3)cnnc12` [Compound 22, (S)-6-(2-aminopropyl)-7-methoxy-N-(thiophen-2-ylmethyl)thieno[3,2-c]pyridazin-4-amine]: the half-inhibitory concentration (IC50) (in experiment [1]; in the experiment on total ATXN3 protein) was 0.501 to 5 µM in each case.

With `CCc1c(C[C@H](C)N)sc2c(NCc3cccs3)cnnc12` [Compound 23, 6-[(2S)-2-aminopropyl]-7-ethyl-N-[(thiophen-2-yl)methyl]thieno[3,2-c]pyridazin-4-amine], the half-inhibitory concentration (IC50) (in experiment [1]; with total ATXN3 protein) was 5 to 10 µM each time.

For the molecule `C[C@H](N)Cc1sc2c(NCc3cccs3)cnnc2c1C#N` [Compound 24, (S)-6-(2-aminopropyl)-4-((thiophen-2-ylmethyl)amino)thieno[3,2-c]pyridazine-7-carbonitrile], the IC50 (in experiment [1]; in the experiment with total ATXN3 protein) was 0.501 to 5 µM each time.

For the molecule `Cc1c([C@@H](C)[C@H](C)N)sc2c(NCc3cccs3)cnnc12` [Compound 25], the IC50 (in experiment [1]; in the experiment on total ATXN3 protein) was 10 to 40 µM in each case.

Regarding `Cc1c([C@H](C)[C@H](C)N)sc2c(NCc3cccs3)cnnc12` [Compound 26], the IC50 (in experiment [1]; in the experiment on total ATXN3 protein) was 10 to 40 µM each time.

With `Cc1c(C[C@@H](N)CC#N)sc2c(NCc3cccs3)cnnc12` [Compound 27, (3S)-3-amino-4-(7-methyl-4-{[(thiophen-2-yl)methyl]amino}thieno[3,2-c]pyridazin-6-yl)butanenitrile], the half-maximal inhibitory concentration (IC50) in experiment [1] was in the range of 0.501 to 5 µM; with total ATXN3 protein, 5 to 10 µM.

Turning to `Cc1c(C[C@@H](N)CC(F)F)sc2c(NCc3cccs3)cnnc12` [Compound 28, 6-[(2S)-2-amino-4,4-difluorobutyl]-7-methyl-N-[(thiophen-2-yl)methyl]thieno[3,2-c]pyridazin-4-amine], the IC50 (in experiment [1]; in the experiment with total ATXN3 protein) was 10 to 40 µM each time.

As for `Cc1c(C[C@@H]2CCCN2)sc2c(NCc3cccs3)cnnc12` [Compound 70, 7-methyl-6-{[(2S)-pyrrolidin-2-yl]methyl}-N-[(thiophen-2-yl)methyl]thieno[3,2-c]pyridazin-4-amine], in the experiment with total ATXN3 protein, the IC50 fell in the range of 10 to 40 µM.

On to `Cc1ccc(CNc2cnnc3c(C)c(C[C@H](C)N)sc23)s1` [Compound 77, 6-[(2S)-2-aminopropyl]-7-methyl-N-[(5-methylthiophen-2-yl)methyl]thieno[3,2-c]pyridazin-4-amine], for which, in the experiment on total ATXN3 protein, the IC50 fell in the range of 10 to 40 µM.

`Cc1ccsc1CNc1cnnc2c(C)c(C[C@H](C)N)sc12` [Compound 78, 6-[(2S)-2-aminopropyl]-7-methyl-N-[(3-methylthiophen-2-yl)methyl]thieno[3,2-c]pyridazin-4-amine]: the IC50 with total ATXN3 protein lay in the range of 10 to 40 µM.

Turning to `Cc1csc(CNc2cnnc3c(C)c(C[C@H](C)N)sc23)c1` [Compound 79, 6-[(2S)-2-aminopropyl]-7-methyl-N-[(4-methylthiophen-2-yl)methyl]thieno[3,2-c]pyridazin-4-amine], in the experiment on total ATXN3 protein, the half-maximal inhibitory concentration (IC50) was in the range of 10 to 40 µM.

As to `CC(=O)CCc1sc2c(NCc3cccs3)cnnc2c1C` [Compound 88, 4-{7-methyl-4-[(thiophen-2-ylmethyl)amino]thieno[3,2-c]pyridazin-6-yl}butan-2-one], the half-inhibitory concentration (IC50) in the experiment with total ATXN3 protein fell in the range of 10 to 40 µM.

The values above are taken from US20250101034A1, “COMPOSITIONS USEFUL FOR MODULATING SPLICING” (SKYHAWK THERAPEUTICS, INC., priority 2021, published 2025).
